Source: PMC8343220, “The selectivity of α‐adrenoceptor agonists for the human α1A, α1B, and α1D‐adrenoceptors” (Pharmacology Research & Perspectives, 2021)
Several values for one entry are separate records, joined by “and”; a condition that tells them apart may be missing. Identical values can stand only once. Like-named read-outs stand apart in the source and are kept apart here.

What was measured:
[1] = target: T1, human α1B‐adrenoceptor (Homo sapiens, UniProt P35368); test: ^3H‐prazosin whole‐cell radioligand binding, CHO‐α1B cells; settings: CHO‐α1B cells
T1 construct: expressed in transfected cells; host or cells: CHO-K1
T1 sequence (P35368 1-520): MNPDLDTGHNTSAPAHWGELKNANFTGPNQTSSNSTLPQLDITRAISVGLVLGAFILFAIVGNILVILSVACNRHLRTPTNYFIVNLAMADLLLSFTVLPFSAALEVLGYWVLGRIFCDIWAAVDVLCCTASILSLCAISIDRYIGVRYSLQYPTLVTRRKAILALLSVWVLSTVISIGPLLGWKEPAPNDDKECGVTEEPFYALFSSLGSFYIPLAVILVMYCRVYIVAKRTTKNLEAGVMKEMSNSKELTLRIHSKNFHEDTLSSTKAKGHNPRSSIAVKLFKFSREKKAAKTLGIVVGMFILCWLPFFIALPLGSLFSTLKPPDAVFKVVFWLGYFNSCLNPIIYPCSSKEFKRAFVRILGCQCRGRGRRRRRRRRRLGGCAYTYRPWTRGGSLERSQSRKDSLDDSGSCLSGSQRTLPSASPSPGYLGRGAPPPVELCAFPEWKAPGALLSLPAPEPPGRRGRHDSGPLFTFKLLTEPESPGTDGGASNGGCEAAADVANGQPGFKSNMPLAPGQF

[2] = target: T2, human α1D‐adrenoceptor (full length) (Homo sapiens, UniProt P25100); test: ^3H‐prazosin whole‐cell radioligand binding, CHO‐α1D cells; settings: CHO‐α1D cells
T2 construct: human α1D‐adrenoceptor (full length) were used; expressed in transfected cells; host or cells: CHO-K1
T2 sequence (P25100 1-572): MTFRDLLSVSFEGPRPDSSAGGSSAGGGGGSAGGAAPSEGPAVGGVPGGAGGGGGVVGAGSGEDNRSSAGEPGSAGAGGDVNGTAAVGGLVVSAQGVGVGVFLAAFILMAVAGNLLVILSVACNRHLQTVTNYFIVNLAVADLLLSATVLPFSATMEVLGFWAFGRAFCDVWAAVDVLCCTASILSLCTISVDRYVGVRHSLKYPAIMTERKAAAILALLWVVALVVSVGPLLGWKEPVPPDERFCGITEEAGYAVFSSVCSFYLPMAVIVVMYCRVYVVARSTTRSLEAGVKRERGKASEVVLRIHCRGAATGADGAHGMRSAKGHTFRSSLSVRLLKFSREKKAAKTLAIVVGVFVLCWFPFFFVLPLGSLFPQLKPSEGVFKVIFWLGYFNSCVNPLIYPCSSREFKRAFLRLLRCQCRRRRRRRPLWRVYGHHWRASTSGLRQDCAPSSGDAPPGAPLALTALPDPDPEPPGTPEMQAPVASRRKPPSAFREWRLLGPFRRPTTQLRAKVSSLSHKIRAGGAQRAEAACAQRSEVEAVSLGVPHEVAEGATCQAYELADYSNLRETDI

[3] = target: T3, human α1A‐adrenoceptor (Homo sapiens, UniProt P35348); test: Intracellular free calcium mobilization, CHO‐α1A cells; format: cell-based; settings: CHO‐α1A cells; for Intracellular calcium release % ionomycin: maximal response as % of 10 µM ionomycin
T3 construct: expressed in transfected cells; host or cells: CHO-K1
T3 sequence (P35348 1-466): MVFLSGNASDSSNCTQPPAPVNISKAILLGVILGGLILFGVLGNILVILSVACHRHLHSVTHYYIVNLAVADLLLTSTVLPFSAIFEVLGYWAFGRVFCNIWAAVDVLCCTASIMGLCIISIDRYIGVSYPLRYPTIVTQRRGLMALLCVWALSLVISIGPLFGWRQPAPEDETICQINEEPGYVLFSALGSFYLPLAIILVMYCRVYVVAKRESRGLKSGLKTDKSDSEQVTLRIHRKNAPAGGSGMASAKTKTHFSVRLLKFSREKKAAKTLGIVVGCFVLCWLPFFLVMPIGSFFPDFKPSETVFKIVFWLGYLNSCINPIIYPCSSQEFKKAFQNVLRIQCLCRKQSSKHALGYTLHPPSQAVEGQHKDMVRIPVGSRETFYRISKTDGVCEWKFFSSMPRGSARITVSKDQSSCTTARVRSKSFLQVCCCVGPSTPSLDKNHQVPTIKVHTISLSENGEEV

[4] = target: T1, human α1B‐adrenoceptor; test: Intracellular free calcium mobilization, CHO‐α1B cells; format: cell-based; settings: CHO‐α1B cells; for Intracellular calcium release % ionomycin: maximal response as % of 10 µM ionomycin response
[5] = target: T2, human α1D‐adrenoceptor (full length); test: Intracellular free calcium mobilization, CHO‐α1D cells; format: cell-based; settings: CHO‐α1D cells; for Intracellular calcium release % ionomycin: maximal response as % of 10 µM ionomycin; for EC50: read-out: Intracellular calcium release Log EC50 (converted)
[6] = target: T3, human α1A‐adrenoceptor; test: ERK1/2‐phosphorylation (Surefire Alphascreen), CHO‐α1A cells; format: cell-based; settings: CHO‐α1A cells, ^a bi‐phasic: initial stimulatory part; for ERK1/2‐phosphorylation % PDBu: % of 10 µM PDBu
[7] = target: T1, human α1B‐adrenoceptor; test: ERK1/2‐phosphorylation (Surefire Alphascreen), CHO‐α1B cells; format: cell-based
[8] = target: T2, human α1D‐adrenoceptor (full length); test: ERK1/2‐phosphorylation (Surefire Alphascreen), CHO‐α1D cells; format: cell-based; settings: for EC50: log values given negative, read-out: ERK1/2‐phosphorylation Log EC50 (converted)
[9] = system: parental CHO cell line without any transfected receptors; test: ERK1/2‐phosphorylation, parent CHO cells without transfected receptors; format: cell-based, Chinese hamster; settings: for ERK1/2-phosphorylation % PDBu: CHO cells without transfected receptors, maximal response as % of PDBu (10μM) response, mean ± s.e.m.
[10] = target: T3, human α1A‐adrenoceptor; test: ^3H‐cAMP accumulation, CHO‐α1A cells; format: cell-based; settings: CHO‐α1A cells; for cAMP accumulation % forskolin: % of 10 µM forskolin response
[11] = target: T1, human α1B‐adrenoceptor; test: ^3H‐cAMP accumulation, CHO‐α1B cells; format: cell-based; settings: CHO‐α1B cells; for cAMP accumulation % forskolin: % forskolin maximum response
[12] = target: T2, human α1D‐adrenoceptor (full length); test: ^3H‐cAMP accumulation, CHO‐α1D cells; format: cell-based; settings: cAMP accumulation without forskolin
[13] = target: T1, human α1B‐adrenoceptor; test: ^3H‐cAMP accumulation in the presence of 10 μM forskolin, CHO‐α1B cells; format: cell-based; settings: CHO‐α1B cells; in presence of forskolin
[14] = target: T2, human α1D‐adrenoceptor (full length); test: ^3H‐cAMP accumulation in the presence of 10 μM forskolin, CHO‐α1D cells; format: cell-based; settings: CHO‐α1D cells
[15] = system: parental CHO cell line without any transfected receptors; test: Forskolin‐stimulated cAMP accumulation, parent CHO cells without transfected receptors; format: cell-based, Chinese hamster; settings: CHO cells without transfected receptors; in presence of forskolin
[16] = target: T3, human α1A‐adrenoceptor; test: ^3H‐prazosin whole‐cell radioligand binding, CHO‐α1A cells
[17] = target: T3, human α1A‐adrenoceptor; test: ^3H‐cAMP accumulation in the presence of 10 μM forskolin, CHO‐α1A cells; format: cell-based
[18] = given as log KD (negative), mean ± SEM, 'early plateau' = specific binding not fully inhibited
[19] = CHO‐α1B cells, maximal response as % PDBu response, for bi‐phasic responses the initial stimulatory part
[20] = in presence of forskolin, log values given negative
[21] = CHO‐α1D cells, maximal response as % of PDBu

Row | Intracellular calcium release % ionomycin [3] [%] | Intracellular calcium release % ionomycin [4] [%] | Intracellular calcium release % ionomycin [5] [%] | ERK1/2‐phosphorylation % PDBu [6] | ERK1/2‐phosphorylation % PDBu [7, 19] [%] | cAMP accumulation % forskolin [10] | cAMP accumulation % forskolin [11] [%] | cAMP Log EC50 [12] | EC50 ([5]; log values given negative) [µM] | EC50 ([8]; CHO‐α1D cells) [µM] | EC50 [14, 20] [µM] | Compound | ERK1/2-phosphorylation % PDBu [9] | cAMP accumulation (in presence of forskolin) Log EC50 [15] | ERK1/2‐phosphorylation % PDBu [8, 21] [%] | other results
1 | 61.0 ± 3.8 | 35.7 ± 3.7 | 12.0 ± 3.6 | 74.8 ± 4.5% | 54.5 ± 7.9 | 142.7 ± 8.7% | 5.3 ± 0.5 | No response |  |  |  | CS(=O)(=O)Nc1c(O)ccc2c1CCCC2C1=NCCN1 (stereo not drawn) [A61603] | No response | No response |  | IC50 (log), ^3H‐prazosin binding ([1]; log IC50 bound given where no KD could be determined): IC50 > −4; Log IC50 α1B, ^3H‐prazosin whole cell binding ([1]; printed as IC50> log value): IC50 >−4; 3H‐prazosin binding Log KD ([2]; whole‐cell binding (from Table 1), log values given negative): −3.92; Log KD α1D, ^3H‐prazosin whole cell binding [2, 18]: −3.92 ± 0.11; Intracellular calcium release Log EC50 ([4]; given as log EC50 (negative numbers)): −6.52 ± 0.08; Intracellular calcium release Log EC50 ([5]; log values given negative): −5.29 ± 0.12; ERK1/2‐phosphorylation % PDBu at 100 µM ([8]; CHO‐α1D cells, response at 100 µM ligand (no EC50 given)): 11.7 ± 2.9%; cAMP accumulation Log EC50 [11]: −5.63 ± 0.18; cAMP accumulation (in presence of forskolin) Log EC50 [13]: −6.16 ± 0.09; cAMP (in presence of forskolin) Log EC50 [14, 20]: No response
2 | 57.5 ± 2.1 | 54.9 ± 2.9 |  | 81.2 ± 6.8% | 76.1 ± 6.8 |  |  | No response | 6.31 | 18.6 | 1.82 | NCC(O)c1ccc(O)cc1 (stereo not drawn) [Octopamine] |  | No response |  | Kd ([16]; Log KD α1A, ^3H‐prazosin whole cell binding, CHO‐α1A cells, given as log KD (negative), mean ± SEM): 363 µM; Affinity selectivity ratio α1A vs α1B ([16]; higher affinity for α1A than α1B): >2.8 fold; Affinity selectivity ratio α1A vs α1D ([16]; higher affinity for α1A than α1D): >2.8 fold; IC50 ([1]; printed as IC50> log value): > 1000 µM; 3H‐prazosin binding log IC50 (bound, printed in Log KD column) ([2]; whole‐cell binding, given as IC50 > log value): IC50 > −3; IC50 ([2]; printed as IC50> log value): > 1000 µM; Log efficacy ratio KD /EC50 ([3]; binding KD and calcium EC50): 2.66; EC50 ([3]; given as log EC50 (negative), read-out: Intracellular calcium release Log EC50 (converted)): 0.794 µM; EC50 ([4]; given as log EC50 (negative numbers), read-out: Intracellular calcium release Log EC50 (converted)): 1.23 µM; Log efficacy ratio KD /EC50 ([4]; intrinsic efficacy ratio, KD from binding / EC50 calcium, log): >2.91; Log efficacy ratio KD /EC50 ([5]; intrinsic efficacy ratio, binding KD / calcium EC50): >2.20; EC50 ([6]; 2–4 min, ^b also active in parent CHO cells, read-out: ERK1/2‐phosphorylation Log EC50 (converted)): 4.17 µM; EC50 ([7]; CHO‐α1B cells, for bi‐phasic responses the initial stimulatory part, read-out: ERK1/2‐phosphorylation Log EC50 (converted)): 7.76 µM; ERK1/2‐phosphorylation % PDBu [8]: 14.5 ± 5.9%; Emax at 100 µM ([9]; Cricetulus griseus, CHO, read-out: ERK1/2-phosphorylation % PDBu at 100μM): 2.9 ± 1.8%; cAMP accumulation % forskolin at 100 µM ([10]; response at 100 μM ligand, no EC50 obtained): 18.0 ± 1.5%; cAMP accumulation (in presence of forskolin) Fold increase at 100 µM ([17]; CHO‐α1A cells, response at 100 μM ligand, no EC50 obtained): 1.89 ± 0.06 fold; cAMP (in presence of forskolin) Fold increase ([14]; fold increase of the forskolin response): 1.17 ± 0.06
3 | 58.9 ± 3.7 |  | 30.3 ± 2.3 | 71.3% and 71.3 ± 7.7% |  | 164% and 164.0 ± 7.3% | 172.1 ± 11.3 | No response | 0.0182 | 0.182 | 0.871 | CNC[C@H](O)c1ccc(O)c(O)c1 [Adrenaline] | No response | No response | 32.2 ± 4.0 | Kd ([2]; Log KD α1D, ^3H‐prazosin whole cell binding, given as log KD (negative), mean ± SEM, 'early plateau' = specific binding not fully inhibited): 6.46 µM; Intracellular calcium release % ionomycin ([3]; listed as adrenaline): 58.9%; ERK1/2‐phosphorylation % PDBu [7]: 76.6 ± 9.0%; Gi‐mediated inhibition of forskolin‐stimulated cAMP, CHO‐α1A cells [17]: did not inhibit cAMP accumulation

Row | Compound | Intracellular calcium release % ionomycin [3] [%] | Intracellular calcium release % ionomycin [4] [%] | Intracellular calcium release % ionomycin [5] [%] | ERK1/2‐phosphorylation % PDBu [6] | ERK1/2‐phosphorylation % PDBu [7, 19] [%] | cAMP accumulation % forskolin [10] | cAMP accumulation % forskolin [11] [%] | cAMP Log EC50 [12] | EC50 ([5]; log values given negative) [µM] | EC50 ([8]; CHO‐α1D cells) [µM] | EC50 [14, 20] [µM] | ERK1/2-phosphorylation % PDBu [9] | cAMP accumulation (in presence of forskolin) Log EC50 [15] | ERK1/2‐phosphorylation % PDBu [8, 21] [%] | other results
4 | CNC[C@H](O)c1cccc(O)c1 [R‐phenylephrine] | 58.3 ± 2.9 | 67.0 ± 3.3 |  | 84.5 ± 4.5% | 77.0 ± 4.8 | 132.5 ± 4.5% | 86.2 ± 5.3 | No response | 0.0631 | 0.676 | 0.17 |  |  | 15.8 ± 2.9 | Kd [2, 18]: 22.4 µM
